In PubChem BioAssay (NCI):
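The compound was tested at five concentrations on cells cultured in 96-well plates, with a 48-hour exposure period. The concentration for full growth arrest is given as TGI.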

What was measured:
Assay in all cases: inhibition of tumour cell growth, NCI panel, 48 h
MDA-N = system: MDA-N
DU-145 prostate = system: DU-145 prostate
IGROV1 ovarian = system: IGROV1 ovarian
RPMI-8226 leukemia = system: RPMI-8226 leukemia
HT29 colon = system: HT29 colon
SF-539 CNS = system: SF-539 CNS
SK-OV-3 ovarian = system: SK-OV-3 ovarian
UACC-62 melanoma = system: UACC-62 melanoma
786-0 renal = system: 786-0 renal
SN12C renal = system: SN12C renal
UO-31 renal = system: UO-31 renal
A549 NSCLC = system: A549 NSCLC
SF-268 CNS = system: SF-268 CNS
HS 578T breast = system: HS 578T breast
OVCAR-5 ovarian = system: OVCAR-5 ovarian
M14 melanoma = system: M14 melanoma
NCI-H226 lung = system: NCI-H226 lung
OVCAR-3 ovarian = system: OVCAR-3 ovarian
SNB-19 CNS = system: SNB-19 CNS
T-47D breast = system: T-47D breast
LOX IMVI melanoma = system: LOX IMVI melanoma
OVCAR-8 ovarian = system: OVCAR-8 ovarian
NCI-H522 lung = system: NCI-H522 lung
U251 CNS = system: U251 CNS
NCI-H23 lung = system: NCI-H23 lung
MDA-MB-435 = system: MDA-MB-435
NCI/ADR-RES ovarian = system: NCI/ADR-RES ovarian
KM12 colon = system: KM12 colon
HOP-62 NSCLC = system: HOP-62 NSCLC
K-562 leukemia = system: K-562 leukemia
MCF7 breast = system: MCF7 breast
MOLT-4 leukemia = system: MOLT-4 leukemia
HCT-15 colon = system: HCT-15 colon
SF-295 CNS = system: SF-295 CNS
CCRF-CEM leukemia = system: CCRF-CEM leukemia
SW-620 colon = system: SW-620 colon
OVCAR-4 ovarian = system: OVCAR-4 ovarian
HOP-92 NSCLC = system: HOP-92 NSCLC
EKVX NSCLC = system: EKVX NSCLC
SR leukemia = system: SR leukemia
A498 renal = system: A498 renal
CAKI-1 renal = system: CAKI-1 renal
COLO 205 colon = system: COLO 205 colon
SK-MEL-2 melanoma = system: SK-MEL-2 melanoma
SK-MEL-5 melanoma = system: SK-MEL-5 melanoma
ACHN renal = system: ACHN renal
MALME-3M melanoma = system: MALME-3M melanoma
BT-549 breast = system: BT-549 breast
PC-3 prostate = system: PC-3 prostate
MDA-MB-231 breast = system: MDA-MB-231 breast
HCT-116 colon = system: HCT-116 colon
SK-MEL-28 melanoma = system: SK-MEL-28 melanoma
SNB-75 CNS = system: SNB-75 CNS
RXF 393 renal = system: RXF 393 renal
TK-10 renal = system: TK-10 renal
NCI-H460 lung = system: NCI-H460 lung
UACC-257 melanoma = system: UACC-257 melanoma
HCC-2998 colon = system: HCC-2998 colon
HL-60(TB) leukemia = system: HL-60(TB) leukemia

Measured: TGI

C=CCN1C[C@@H](C)N([C@@H](c2ccc(C(=O)N(CC)CC)cc2)c2cccc(OC)c2)C[C@@H]1C
> 100 µM: MDA-N | DU-145 prostate | IGROV1 ovarian | RPMI-8226 leukemia | HT29 colon | SF-539 CNS | SK-OV-3 ovarian | UACC-62 melanoma | 786-0 renal | SN12C renal | UO-31 renal | A549 NSCLC | SF-268 CNS | HS 578T breast | OVCAR-5 ovarian | M14 melanoma | NCI-H226 lung | OVCAR-3 ovarian | SNB-19 CNS | T-47D breast | LOX IMVI melanoma | OVCAR-8 ovarian | NCI-H522 lung | U251 CNS | NCI-H23 lung | MDA-MB-435 | NCI/ADR-RES ovarian | KM12 colon | HOP-62 NSCLC | K-562 leukemia | MCF7 breast | MOLT-4 leukemia | HCT-15 colon | SF-295 CNS | CCRF-CEM leukemia | SW-620 colon | OVCAR-4 ovarian | HOP-92 NSCLC | EKVX NSCLC | SR leukemia | A498 renal | CAKI-1 renal | COLO 205 colon | SK-MEL-2 melanoma | SK-MEL-5 melanoma | ACHN renal | MALME-3M melanoma | BT-549 breast | PC-3 prostate | MDA-MB-231 breast | HCT-116 colon | SK-MEL-28 melanoma

COc1ccccc1/C=C/c1nc2ccccc2o1
> 10 µM: MDA-N | DU-145 prostate | IGROV1 ovarian | RPMI-8226 leukemia | HT29 colon | SNB-75 CNS | SF-539 CNS | SK-OV-3 ovarian | UACC-62 melanoma | 786-0 renal | SN12C renal | RXF 393 renal | A549 NSCLC | SF-268 CNS | HS 578T breast | OVCAR-5 ovarian | M14 melanoma | NCI-H226 lung | OVCAR-3 ovarian | SNB-19 CNS | T-47D breast | LOX IMVI melanoma | OVCAR-8 ovarian | NCI-H522 lung | U251 CNS | NCI-H23 lung | MDA-MB-435 | NCI/ADR-RES ovarian | KM12 colon | HOP-62 NSCLC | TK-10 renal | K-562 leukemia | NCI-H460 lung | MCF7 breast | MOLT-4 leukemia | HCT-15 colon | SF-295 CNS | CCRF-CEM leukemia | UACC-257 melanoma | SW-620 colon | OVCAR-4 ovarian | HOP-92 NSCLC | EKVX NSCLC | SR leukemia | A498 renal | CAKI-1 renal | COLO 205 colon | SK-MEL-2 melanoma | SK-MEL-5 melanoma | ACHN renal | MALME-3M melanoma | BT-549 breast | PC-3 prostate | MDA-MB-231 breast | HCC-2998 colon | HCT-116 colon | SK-MEL-28 melanoma

Cc1cc(=O)c2ccccc2n1CCCCCCCCCCn1c(C)cc(=O)c2ccccc21
6.27 µM: SK-MEL-5 melanoma
17.8 µM: LOX IMVI melanoma
25.2 µM: UACC-257 melanoma
34 µM: SR leukemia
30.2 µM: TK-10 renal
41.9 µM: DU-145 prostate
44.3 µM: SF-539 CNS
35.3 µM: SK-OV-3 ovarian
44.1 µM: OVCAR-4 ovarian
46.1 µM: NCI-H226 lung
43.3 µM: SN12C renal
56 µM: SW-620 colon
51.9 µM: COLO 205 colon
34.4 µM: MALME-3M melanoma
28.9 µM: A498 renal
24.1 µM: HCC-2998 colon
89.4 µM: SF-268 CNS
30.9 µM: NCI-H23 lung
34.9 µM: UACC-62 melanoma
> 100 µM: OVCAR-5 ovarian | M14 melanoma | OVCAR-3 ovarian | SNB-19 CNS | T-47D breast | NCI/ADR-RES ovarian | HOP-62 NSCLC | HCT-15 colon | ACHN renal | PC-3 prostate | MDA-MB-231 breast
47.7 µM: HS 578T breast
46.7 µM: OVCAR-8 ovarian
36.1 µM: CAKI-1 renal
33.9 µM: EKVX NSCLC
29.4 µM: KM12 colon
29.9 µM: HT29 colon
35.1 µM: SK-MEL-28 melanoma
43.8 µM: IGROV1 ovarian
32.9 µM: NCI-H522 lung
87.4 µM: NCI-H460 lung
27.8 µM: HCT-116 colon
15.1 µM: HL-60(TB) leukemia
23 µM: BT-549 breast
21.7 µM: MOLT-4 leukemia
29 µM: U251 CNS
26.7 µM: CCRF-CEM leukemia
25.6 µM: UO-31 renal
38.5 µM: HOP-92 NSCLC
56.2 µM: A549 NSCLC
43.1 µM: MDA-N
72.3 µM: RXF 393 renal
29.7 µM: MDA-MB-435
30.4 µM: 786-0 renal
17.9 µM: K-562 leukemia
87 µM: SNB-75 CNS

COc1cc(C(=O)OCCn2[nH]c(-c3ccc(Cl)cc3)nc2=S)cc(OC)c1OC
24.2 µM: UO-31 renal
95.2 µM: HOP-92 NSCLC
> 100 µM: MDA-N | DU-145 prostate | HT29 colon | SF-539 CNS | SK-OV-3 ovarian | UACC-62 melanoma | 786-0 renal | HL-60(TB) leukemia | SN12C renal | RXF 393 renal | A549 NSCLC | SF-268 CNS | HS 578T breast | OVCAR-5 ovarian | M14 melanoma | NCI-H226 lung | OVCAR-3 ovarian | SNB-19 CNS | LOX IMVI melanoma | OVCAR-8 ovarian | NCI-H522 lung | U251 CNS | NCI-H23 lung | MDA-MB-435 | NCI/ADR-RES ovarian | KM12 colon | HOP-62 NSCLC | TK-10 renal | K-562 leukemia | NCI-H460 lung | MCF7 breast | MOLT-4 leukemia | HCT-15 colon | SF-295 CNS | CCRF-CEM leukemia | UACC-257 melanoma | SW-620 colon | OVCAR-4 ovarian | EKVX NSCLC | SR leukemia | A498 renal | CAKI-1 renal | COLO 205 colon | SK-MEL-2 melanoma | SK-MEL-5 melanoma | ACHN renal | MALME-3M melanoma | BT-549 breast | PC-3 prostate | MDA-MB-231 breast | HCC-2998 colon | HCT-116 colon | SK-MEL-28 melanoma
